Experimental data published in ChEMBL document CHEMBL5325432, “Systematic study of 1,2,3-triazolyl sterols for the development of new drugs against parasitic Neglected Tropical Diseases” (Eur J Med Chem, 2023).

How the values were obtained:
[1] = Selectivity index, ratio of IC50 for cytotoxicity against African green monkey Vero cells to IC50 for antileishmanial activity against Leishmania donovani S1 promastigotes assessed as parasite growth inhibition; assay type: toxicity, cell-based; settings: read-out: Ratio IC50
[2] = Cytotoxicity against African green monkey Vero cells incubated for 48 hrs; assay type: toxicity, cell-based; settings: African green monkey (Chlorocebus sabaeus)
Leishmania donovani = assay: Antileishmanial activity against Leishmania donovani S1 promastigotes assessed as parasite growth inhibition incubated for 72 hrs by Alamar blue assay; assay type: functional, organism-based; settings: S1, 72 h
[3] = Selectivity index, ratio of IC50 for cytotoxicity against African green monkey Vero cells to IC50 for antiparasitic activity against Trypanosoma brucei assessed as parasite growth inhibition; assay type: toxicity, cell-based; settings: read-out: Ratio IC50
Trypanosoma cruzi = assay: Antiparasitic activity against Trypanosoma cruzi epimastigotes assessed as parasite growth inhibition incubated for 14 days by Alamar blue assay; assay type: functional, organism-based; settings: 336 h
Trypanosoma brucei = assay: Antiparasitic activity against Trypanosoma brucei assessed as parasite growth inhibition incubated for 3 days by Alamar blue assay; assay type: functional, organism-based; settings: 72 h
[4] = Selectivity index, ratio of IC50 for cytotoxicity against African green monkey Vero cells to IC50 for antiparasitic activity against Trypanosoma cruzi epimastigotes assessed as parasite growth inhibition; assay type: toxicity, cell-based; settings: read-out: Ratio IC50

| SMILES | selectivity ratio [1] | IC50 at 48 h [2] | IC50 (Leishmania donovani) | selectivity ratio [3] | IC50 (Trypanosoma cruzi) | IC50 (Trypanosoma brucei) | selectivity ratio [4] |
| --- | --- | --- | --- | --- | --- | --- | --- |
| CC(=O)O[C@H]1CC[C@@]2(C)C(=CC[C@H]3[C@@H]4CC[C@H]([C@@H](C)NCc5cn(C/C=C(\C)CCC=C(C)C)nn5)[C@@]4(C)CC[C@@H]32)C1 | 0.84 | > 8670 nM | 10300 nM | > 6.93 | > 10000 nM | 1250 nM | – |
| C#CCN[C@@H](C)[C@H]1CC[C@H]2[C@@H]3CC=C4C[C@@H](OC(C)=O)CC[C@]4(C)[C@H]3CC[C@]12C | – | > 11900 nM | > 10000 nM | > 6.44 | 8880 nM | 1800 nM | > 1.31 |
| CCCCCCCCn1cc(CN[C@@H](C)[C@H]2CC[C@H]3[C@@H]4CC=C5C[C@@H](OC(C)=O)CC[C@]5(C)[C@H]4CC[C@]23C)nn1 | > 1.15 | > 9040 nM | 7870 nM | > 14.6 | > 10000 nM | 620 nM | – |
| C[C@@H](NCc1cn(CCCc2ccccc2)nn1)[C@H]1CC[C@H]2[C@@H]3CC=C4C[C@@H](O)CC[C@]4(C)[C@H]3CC[C@]12C | > 5 | > 9420 nM | 1940 nM | > 5.18 | 6480 nM | 1820 nM | > 1.45 |
| C[C@H](NCc1cn(CCCc2ccccc2)nn1)[C@H]1CC[C@H]2[C@@H]3CC=C4C[C@@H](O)CC[C@]4(C)[C@H]3CC[C@]12C | > 7.14 | > 9680 nM | 1350 nM | > 6.77 | 2220 nM | 1430 nM | > 4.36 |
| CCCCCCCCn1cc(CN[C@@H](C)[C@H]2CC[C@H]3[C@@H]4CC=C5C[C@@H](O)CC[C@]5(C)[C@H]4CC[C@]23C)nn1 | > 6.67 | > 9790 nM | 1470 nM | > 17.8 | 1950 nM | 550 nM | > 5.02 |
| CC(=O)O[C@H]1CC[C@@]2(C)C(=CC[C@H]3[C@@H]4CC[C@H]([C@H](C)NCc5cn(Cc6ccccc6)nn5)[C@@]4(C)CC[C@@H]32)C1 | > 3.7 | > 9420 nM | 2540 nM | > 47.1 | 2550 nM | 200 nM | > 3.69 |
| CC(=O)O[C@H]1CC[C@@]2(C)C(=CC[C@H]3[C@@H]4CC[C@H]([C@@H](C)NCc5cn(CCCc6ccccc6)nn5)[C@@]4(C)CC[C@@H]32)C1 | – | > 8950 nM | > 10000 nM | > 44.7 | 4500 nM | 200 nM | > 1.99 |
| C[C@H](NCc1cn(Cc2ccccc2)nn1)[C@H]1CC[C@H]2[C@@H]3CC=C4C[C@@H](O)CC[C@]4(C)[C@H]3CC[C@]12C | > 7.69 | > 10200 nM | 1330 nM | > 15 | 330 nM | 680 nM | > 31 |
| C[C@]12CC[C@H]3[C@@H](CC=C4C[C@@H](O)CC[C@@]43C)[C@@H]1CC[C@@H]2[C@@](C)(O)CNCc1cn(CCCc2ccccc2)nn1 | > 8.77 | > 9140 nM | 1040 nM | – | > 10000 nM | > 10000 nM | – |
| CCCCCCCCn1cc(CNC[C@](C)(O)[C@H]2CC[C@H]3[C@@H]4CC=C5C[C@@H](O)CC[C@]5(C)[C@H]4CC[C@@]32C)nn1 | > 6.33 | > 9240 nM | 1460 nM | > 14.7 | 8130 nM | 630 nM | > 1.14 |
| C[C@]12CC[C@H]3[C@@H](CC=C4C[C@@H](O)CC[C@@]43C)[C@@H]1CC[C@@H]2[C@@](C)(O)CNCc1cn(Cc2ccccc2)nn1 | > 4.95 | > 9640 nM | 1950 nM | > 80.3 | 8280 nM | 120 nM | > 1.16 |
| CC(=O)O[C@H]1CC[C@@]2(C)C(=CC[C@H]3[C@@H]4CC[C@H]([C@H](C)NCc5cn(C/C=C(\C)CCC=C(C)C)nn5)[C@@]4(C)CC[C@@H]32)C1 | > 1.79 | > 8670 nM | 4830 nM | > 13.8 | > 10000 nM | 630 nM | – |
| CCOC(=O)Cn1cc(CN[C@@H](C)[C@H]2CC[C@H]3[C@@H]4CC=C5C[C@@H](OC(C)=O)CC[C@]5(C)[C@H]4CC[C@]23C)nn1 | > 1.94 | > 9490 nM | 4900 nM | > 14.4 | 7800 nM | 660 nM | > 1.22 |
| CCCCCCCCn1cc(CN[C@H](C)[C@H]2CC[C@H]3[C@@H]4CC=C5C[C@@H](O)CC[C@]5(C)[C@H]4CC[C@]23C)nn1 | > 3.85 | > 9790 nM | 2550 nM | > 6.53 | > 10000 nM | 1500 nM | – |
| CCOC(=O)Cn1cc(CN[C@@H](C)[C@H]2CC[C@H]3[C@@H]4CC=C5C[C@@H](O)CC[C@]5(C)[C@H]4CC[C@]23C)nn1 | > 1.61 | > 10300 nM | 6400 nM | – | > 10000 nM | > 10000 nM | – |
| CC(=O)O[C@H]1CC[C@@]2(C)C(=CC[C@H]3[C@@H]4CC[C@H]([C@H](C)NCc5cn(CCCc6ccccc6)nn5)[C@@]4(C)CC[C@@H]32)C1 | > 2.99 | > 8950 nM | 2990 nM | > 44.7 | 6300 nM | 200 nM | > 1.42 |
| CC(C)=CCC/C(C)=C/Cn1cc(CN[C@@H](C)[C@H]2CC[C@H]3[C@@H]4CC=C5C[C@@H](O)CC[C@]5(C)[C@H]4CC[C@]23C)nn1 | > 5.56 | > 9350 nM | 1680 nM | > 14.6 | 3170 nM | 640 nM | > 2.95 |
| CCCCCc1cn(C[C@](C)(O)[C@H]2CC[C@H]3[C@@H]4CC=C5C[C@@H](O)CC[C@]5(C)[C@H]4CC[C@@]32C)nn1 | – | > 10600 nM | > 10000 nM | > 59.8 | 6330 nM | 180 nM | > 1.68 |
| CCOC(=O)Cn1cc(CN[C@H](C)[C@H]2CC[C@H]3[C@@H]4CC=C5C[C@@H](O)CC[C@]5(C)[C@H]4CC[C@]23C)nn1 | > 1.56 | > 10300 nM | 6600 nM | > 1.59 | > 10000 nM | 6500 nM | – |
| C[C@@H](NCc1cn(Cc2ccccc2)nn1)[C@H]1CC[C@H]2[C@@H]3CC=C4C[C@@H](O)CC[C@]4(C)[C@H]3CC[C@]12C | > 1.67 | > 10200 nM | 6140 nM | > 5.78 | 2470 nM | 1770 nM | > 4.14 |
| CC(C)=CCC/C(C)=C/Cn1cc(CN[C@H](C)[C@H]2CC[C@H]3[C@@H]4CC=C5C[C@@H](O)CC[C@]5(C)[C@H]4CC[C@]23C)nn1 | > 8.2 | > 9350 nM | 1140 nM | > 14.2 | > 10000 nM | 660 nM | – |
| O=C(Cn1ccnc1[N+](=O)[O-])NCc1ccccc1 [BENZNIDAZOLE] | – | – | – | – | 7400 nM | – | 1.9 |
| CC1CS(=O)(=O)CCN1/N=C/c1ccc([N+](=O)[O-])o1 (stereo not given) [NIFURTIMOX] | – | – | – | 18.8 | – | – | 15.2 |
